Test results reported in PubChem BioAssay AID1259408 (Genetic Toxicology Data Bank (GENE-TOX), 2018).
The source made the active and inactive calls. No rule for the calls is given here.

Tested on: GENE-TOX genotoxicity assays, various organisms and cells
Experiment: GENE-TOX mutagenicity studies
Conditions: for call: Assay Type: In vivo carcinogenicity studies
[1] = Species/Cell Type: Salmonella typhimurium (one or more of the five standard strains: TA98, TA100, TA1535, TA1537, and TA1538), Assay Type: Histidine reverse gene mutation, Ames assay, Assay Code: SALT, Evaluation Type: Evaluation A (Pre-1980)
[2] = Species/Cell Type: Nonhuman, Assay Code: CCG+, Evaluation Type: Evaluation A (Pre-1980)
[3] = Species/Cell Type: Syrian hamster embryo (SHE) cells, Assay Type: Cell transformation, clonal assay, Assay Code: CTCT, Evaluation Type: Evaluation A (Pre-1980)
[4] = Species/Cell Type: Drosophila melanogaster, Assay Type: Sex-linked recessive lethal gene mutation, Assay Code: SRL+, Evaluation Type: Evaluation A (Pre-1980)
[5] = Species/Cell Type: Human lymphocytes, Assay Type: Sister-chromatid exchange (SCE) in vitro, Assay Code: SCL+, Evaluation Type: Evaluation B (Post-1980)
[6] = Species/Cell Type: Human, Assay Type: Sister-chromatid exchange (SCE) in vitro, Assay Code: SC1+, Evaluation Type: Evaluation B (Post-1980)

## Oc1ccc2ccc3cc4ccccc4c4ccc1c2c34
Species/Cell Type: Chinese hamster lung (V79) cells, Assay Type: Forward gene mutation at the HPRT or ouabain locus, Assay Code: V79+/-*, Activation: With metabolic activation, Evaluation Type: Evaluation A (Pre-1980)
  mutagenic call: inactive; positive without activation, negative with activation
Species/Cell Type: Nonhuman, Assay Code: CCGT, Evaluation Type: Evaluation A (Pre-1980)
  call: no conclusion
Species/Cell Type: Salmonella typhimurium (one or more of the five standard strains: TA98, TA100, TA1535, TA1537, and TA1538), Assay Type: Histidine reverse gene mutation, Ames assay, Assay Code: SAL+, Evaluation Type: Evaluation A (Pre-1980)
  mutagenic call: active; positive

## CC(=O)C(N=Nc1ccc(-c2ccc(N=NC(C(C)=O)C(=O)Nc3ccccc3)c(Cl)c2)cc1Cl)C(=O)Nc1ccccc1 (configuration not stated)
Species/Cell Type: Nonhuman, Assay Code: CCG-, Evaluation Type: Evaluation A (Pre-1980)
  call: inactive; negative

## CCCCOc1ccc(CC(=O)NO)cc1
Species/Cell Type: Human lymphocytes, Assay Type: Sister-chromatid exchange (SCE) in vitro, Assay Code: SCLT, Evaluation Type: Evaluation B (Post-1980)
  mutagenic call: no conclusion
Species/Cell Type: Human, Assay Type: Sister-chromatid exchange (SCE) in vitro, Assay Code: SC1T, Evaluation Type: Evaluation B (Post-1980)
  mutagenic call: no conclusion
Species/Cell Type: Nonhuman, Assay Type: Sister-chromatid exchange (SCE) in vitro, Assay Code: SC2+, Evaluation Type: Evaluation B (Post-1980)
  mutagenic call: active; positive
[1]
  mutagenic call: no conclusion

## CCNC(=O)Nc1ncc([N+](=O)[O-])s1
[2]
  call: active; positive

## O=[N+]([O-])O
Species/Cell Type: Bacillus subtilis (H17 vs M45), Assay Type: Rec-assay, spot test, DNA effects (bacterial DNA repair), Assay Code: REW+, Evaluation Type: Evaluation A (Pre-1980)
  mutagenic call: active; positive
Species/Cell Type: Mammalian polychromatic erythrocytes, Assay Type: Micronucleus test, chromosome aberrations, Assay Code: MNT+U, Dose Response: Unconfirmed positive response, Evaluation Type: Evaluation B (Post-1980)
  mutagenic call: active; positive
Species/Cell Type: Syrian hamster embryo (SA7/SHE) cells, Assay Type: Cell transformation, viral enhanced, Assay Code: CT7-, Evaluation Type: Evaluation A (Pre-1980)
  mutagenic call: inactive; negative
[3]
  mutagenic call: no conclusion

## CNP(=O)(N1CC1)N1CC1
[4]
  mutagenic call: active; positive

## ClCCBr
Species/Cell Type: Chinese hamster ovary (CHO) cells, Assay Type: Forward gene mutation at the HPRT locus, Assay Code: CHO+, Evaluation Type: Evaluation B (Post-1980)
  mutagenic call: active; positive
Species/Cell Type: Escherichia coli polA (W3119 vs P3478), Assay Type: Rec-assay, DNA effects (bacterial DNA repair), Assay Code: RE1+, Evaluation Type: Evaluation A (Pre-1980)
  mutagenic call: active; positive

## Nc1ccc(Oc2ccc(N)cc2)cc1
[2]
  call: active; positive
Species/Cell Type: Nonhuman, Assay Type: Sister-chromatid exchange (SCE) in vivo, Assay Code: SC3T, Evaluation Type: Evaluation B (Post-1980)
  mutagenic call: no conclusion

## N#Cc1c(Cl)c(Cl)c(Cl)c(C#N)c1Cl
Species/Cell Type: Hordeum vulgare (barley), Assay Type: Chromosome aberrations, Assay Code: HOC-, Evaluation Type: Evaluation A (Pre-1980)
  mutagenic call: inactive; negative
Species/Cell Type: Nonhuman, Assay Code: CCG+L, Evaluation Type: Evaluation A (Pre-1980)
  call: active; positive

## Cc1ccc2c(C)c(C)[nH]c2c1
[5]
  mutagenic call: active; positive
[6]
  mutagenic call: active; positive

## CN(C)CCC=C1c2ccccc2C2OC2c2ccccc21 (configuration not stated)
[1]
  mutagenic call: no conclusion

## CCn1c2cc(=N[N+]#N)ccc-2c2ccc(N=[N+]=[N-])cc2c1-c1ccccc1
Species/Cell Type: Saccharomyces cerevisiae, Assay Type: Mitotic recombination or gene conversion, Assay Code: YECT, Evaluation Type: Evaluation A (Pre-1980)
  mutagenic call: no conclusion
Species/Cell Type: Saccharomyces cerevisiae, Assay Type: Mitotic recombination or gene conversion, Assay Code: YEH-, Evaluation Type: Evaluation A (Pre-1980)
  mutagenic call: inactive; negative
Species/Cell Type: Saccharomyces cerevisiae, Assay Type: Reverse gene mutation, Assay Code: YERT, Evaluation Type: Evaluation A (Pre-1980)
  mutagenic call: no conclusion

## CC[C@@H](CO)NC(=O)[C@@H]1C=C2c3cccc4c3c(cn4C)C[C@H]2N(C)C1
Species/Cell Type: Rodents, Sex: Male, Assay Type: Dominant lethal test, Assay Code: DLT+, Evaluation Type: Evaluation A (Pre-1980)
  mutagenic call: active; positive

## Cc1ccc(N)cc1N
[4]
  mutagenic call: active; positive
Species/Cell Type: Mouse, Sex: Male, Assay Type: Sperm morphology, Assay Code: SPI-, Evaluation Type: Evaluation A (Pre-1980)
  mutagenic call: inactive; negative
Species/Cell Type: Neurospora crassa, Assay Type: Aneuploidy, chromosome aberrations, Assay Code: NEN-, Evaluation Type: Evaluation A (Pre-1980)
  mutagenic call: inactive; negative
[2]
  call: active; positive
Species/Cell Type: Nonhuman, Assay Type: Sister-chromatid exchange (SCE) in vivo, Assay Code: SC3+, Evaluation Type: Evaluation B (Post-1980)
  mutagenic call: active; positive
Species/Cell Type: Salmonella typhimurium (one or more of the five standard strains: TA98, TA100, TA1535, TA1537, and TA1538), Assay Type: Histidine reverse gene mutation, Ames assay, Assay Code: SAL+*, Activation: With metabolic activation, Evaluation Type: Evaluation A (Pre-1980)
  mutagenic call: active; positive
[3]
  mutagenic call: no conclusion

## O=C(O)CNCP(=O)(O)O
[5]
  mutagenic call: active; positive
[6]
  mutagenic call: active; positive

## [S]=[Mo]=[S]
Species/Cell Type: Syrian hamster embryo (SA7/SHE) cells, Assay Type: Cell transformation, viral enhanced, Assay Code: CT7+, Evaluation Type: Evaluation A (Pre-1980)
  mutagenic call: active; positive
